Read-outs that look alike come from different tables or passages of the source.
What was measured:
[1] = target: CYP3A (Homo sapiens, UniProt P08684); assay: CYP3A inhibition assay (midazolam, pooled human liver microsomes); assay type: in vitro ADME; conditions: microsomes
[2] = target: BACE1 (Homo sapiens, UniProt P56817); assay: In vitro enzymatic BACE FRET (fluorescence resonance energy transfer) assay; assay type: biochemical
Procedure, shortened: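 Cleavage of a quenched peptide FRET substrate (50 nM) in 0.05 M acetate pH 4.2, 10% DMSO, 100 uM genapol, 1 h incubation. Reaction stopped by Tris neutralization; fluorescence read at excitation 488 nm / […].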

[3] = Microsomal stability assay, rat liver microsomes; assay type: in vitro ADME
Text: (§1) Microsomal Stability Assay

[4] = test system: Cells stably expressing Amyloid Precursor Protein (APP); assay: In vitro BACE cell-based assay (HEK cell assay): Aβ40 in conditioned medium by sandwich ELISA
Procedure, shortened: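 APP-stably-expressing cells were grown 24 h in DMEM/10% FBS, then treated for 24 h with 10-point doses starting at 100 μM or 10 μM, at 0.1% DMSO final. Aβ40 in conditioned medium was measured by sandwich ELISA (pAb40 capture, biotinylated 6E10 detection, europium time-resolved fluorescence); IC50 from percent inhibition.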

[5] = Microsomal stability assay, human liver microsomes; assay type: in vitro ADME
Text: as §1

[6] = test system: Abeta peptide; assay: In vivo inhibition of beta-secretase: Abeta peptide in CSF and brain after oral dosing; conditions: Rattus norvegicus, po, orally dosed at about 30 mg/kg, CSF, read-out: reduction of Abeta peptide in the CSF of the rat
Text: In Vivo Inhibition of Beta-Secretase
Several animal models, including mouse, rat, dog, and monkey, may be used to screen for inhibition of beta-secretase activity in vivo following administration of a test compound sample. Animals used in this invention can be wild type, transgenic, or gene knockout animals. For example, the Tg2576 mouse model, prepared and conducted as described in Hsiao et al., 1996, Science 274, 99-102, and other non-transgenic or gene knockout animals are useful to analyze in vivo inhibition of Amyloid beta peptide (Abeta) production in the presence of inhibitory test compounds. Generally, 2 to 18 month old Tg2576 mice, gene knockout mice or non-transgenic animals are administered test compounds formulated in vehicles, such as cyclodextran, phosphate buffers, hydroxypropyl methylcellulose or other suitable vehicles. […] A separate group of animals receive 2% hydroxypropyl methylcellulose, 1% Tween80 alone, containing no test compound, and serve as a vehicle-control group. At the end of the test period, animals are sacrificed and brain tissues, plasma or cerebrospinal fluid are collected. Brains are either homogenized in 10 volumes (w/v) of 0.2% diethylamine (DEA) in 50 mM NaCl (Best et al., 2005, Journal of Pharmacology and Experimental Therapeutics, 313, 902-908), or in 10 volumes of 0.5% TritonX-100 in Tris-buffered saline (pH at about 7.6). Homogenates are centrifuged at 355,000 g, 4° C. for 30 minutes. CSF or brain supernatants are then analyzed for the presence of Abeta peptide by specific sandwich ELISA assays based on ECL (Electrochemiluminescence) technology. For example, rat Abeta40 is measured using biotinylated-4G8 (Signet) as a capture antibody and Fab40 (an in-house antibody specific to the C-terminal of Abeta40) as a detection antibody. For example, 4 hours after administration of 30 mg/kg oral dose of the test compound in 2% hydroxypropyl methylcellulose, 1% Tween80 (pH2.2) to 200 g male Sprague Dawley rats, Abeta peptide levels are measured for reduction by X % and Y % in cerebrospinal fluid and brain, respectively, when compared to the levels measured in the vehicle-treated or control […].
Actual vehicles used: Oral: 2% HPMC, 1% Tween80, pH 2.2
• IV: 5% EtOH, 45% Propylene glycol in 5% Dextrose

[7] = Homo sapiens, HEK293, 24 h, Aβ40 in conditioned medium after 24 h incubation

Chain of BACE1 (P56817 46-501, species assumed): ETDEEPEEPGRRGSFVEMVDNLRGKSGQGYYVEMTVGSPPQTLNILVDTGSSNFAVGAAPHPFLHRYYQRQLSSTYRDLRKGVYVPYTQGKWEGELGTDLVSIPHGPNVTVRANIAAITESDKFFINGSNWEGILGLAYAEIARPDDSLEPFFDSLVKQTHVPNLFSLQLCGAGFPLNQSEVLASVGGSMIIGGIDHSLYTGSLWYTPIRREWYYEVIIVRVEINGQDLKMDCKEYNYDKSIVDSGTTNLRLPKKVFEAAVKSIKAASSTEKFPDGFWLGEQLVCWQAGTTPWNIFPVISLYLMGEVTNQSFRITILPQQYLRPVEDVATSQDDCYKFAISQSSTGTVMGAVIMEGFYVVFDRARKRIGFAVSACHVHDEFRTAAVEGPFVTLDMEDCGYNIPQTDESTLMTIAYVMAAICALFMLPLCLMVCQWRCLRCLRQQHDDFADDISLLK
Chain of CYP3A (P08684 2-503): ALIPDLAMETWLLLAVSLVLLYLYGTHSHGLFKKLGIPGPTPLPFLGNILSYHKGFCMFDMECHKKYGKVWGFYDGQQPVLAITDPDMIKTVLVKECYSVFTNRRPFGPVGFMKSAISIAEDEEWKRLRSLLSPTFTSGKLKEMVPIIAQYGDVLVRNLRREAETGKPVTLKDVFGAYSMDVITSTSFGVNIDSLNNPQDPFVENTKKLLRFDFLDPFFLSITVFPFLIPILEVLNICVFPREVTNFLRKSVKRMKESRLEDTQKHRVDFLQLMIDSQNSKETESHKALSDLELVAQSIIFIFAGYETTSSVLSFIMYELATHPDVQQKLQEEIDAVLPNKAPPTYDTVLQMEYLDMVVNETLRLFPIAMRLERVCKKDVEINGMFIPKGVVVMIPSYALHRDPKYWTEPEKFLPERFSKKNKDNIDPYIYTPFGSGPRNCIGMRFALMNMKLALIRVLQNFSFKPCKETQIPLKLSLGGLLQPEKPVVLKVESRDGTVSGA

Row | IC50 [2] | IC50 [4, 7] | Molecule | IC50 [1] | IC50 ([2]; read-out: BACE 1 FRET assay) | RLM [3] | IC50 [4] | HLM [5] | inhibition in vivo at 30 mg/kg [6]
1 | – | – | N-((1S)-1-((1R)-2-(((4′S)-6′-(2,2-dimethylpropyl)-8′-(1-methyl-1H-imidazol-2-yl)-3′,4′-dihydrospiro[cyclobutane-1,2′-pyrano[2,3-c]pyridin]-4′-yl)amino)-1-hydroxyethyl)-3-buten-1-yl)-2-methoxyacetamide [Example 239] | 1100 nM | 208 nM | 340 µL/min/mg | 1500 nM | 311 µL/min/mg | –
2 | 65 nM | 20 nM | C=CC[C@H](NC(C)=O)[C@H](O)CN[C@H]1CC2(CCC2)Oc2c1cc(CC(C)(C)C)nc2NC [Example 44, N-((1S)-1-((1R)-2-(((4′S)-6′-(2,2-dimethylpropyl)-8′-(methylamino)-3′,4′-dihydrospiro[cyclobutane-1,2′-pyrano[2,3-c]pyridin]-4′-yl)amino)-1-hydroxyethyl)-3-buten-1-yl)acetamide] | – | – | – | – | – | ≥ 5%
3 | 71 nM | 132 nM | CC#CC[C@H](NC(=O)COC)[C@H](O)CN[C@H]1CC2(CCC2)Oc2ncc(CC(C)(C)C)cc21 [Example 89, N-((1S)-1-((1R)-2-(((4′S)-6′-(2,2-dimethylpropyl)-3′,4′-dihydrospiro[cyclobutane-1,2′-pyrano[2,3-b]pyridin]-4′-yl)amino)-1-hydroxyethyl)-3-pentyn-1-yl)-2-(methyloxy)acetamide] | – | – | – | – | – | ≥ 5%

From patent US8633315B2, “Substituted hydroxyethyl amine compounds as beta-secretase modulators and methods of use” (Amgen Inc., priority 2007, dated 2014)
